Tested on: Rat-derived L6 cells (rat skeletal myoblast cell)
Test: Rat L6 cell proliferation inhibition test
Format: cell-based
Details: Alamar Blue

Measured: EC50 cytotoxicity L6

CCN1C(=O)/C(=c2/s/c(=C3/C=CC=CN3C)c(=O)n2CC)S/C1=N\c1sc2cc(OC)ccc2[n+]1C [Compound B-28]
5.01 µg/mL: Table 1, 72 hours | Table 2, 72 hours | Table 3, 72 hours | Table 4, 72 hours

CCN1C(=O)/C(=c2/s/c(=C3/SCCN3C)c(=O)n2CC)S/C1=N\c1sc2cc(OC)ccc2[n+]1C [Compound B-29]
1.98 µg/mL: Table 1, 72 hours | Table 2, 72 hours | Table 3, 72 hours | Table 4, 72 hours

CCN1C(=O)/C(=c2/s/c(=C3/C=CC=CN3C)c(=O)n2CC)S/C1=N\c1sc2ccccc2[n+]1C [Compound B-30]
7.46 µg/mL: Table 1, 72 hours | Table 2, 72 hours | Table 3, 72 hours | Table 4, 72 hours

CCN1C(=O)/C(=c2/s/c(=C3/SCCN3C)c(=O)n2CC)S/C1=N\c1sc2cc(F)ccc2[n+]1C [Compound B-33]
9.83 µg/mL: Table 1, 72 hours | Table 2, 72 hours | Table 3, 72 hours | Table 4, 72 hours

CN1/C(=c2\s/c(=C\c3cccc[n+]3CCC(=O)O)n(CC3CO3)c2=O)Sc2ccccc21 (stereo not shown) [Compound S-3, reference compound]
>90 µg/mL: Table 2, 72 hours | Table 3, 72 hours | Table 4, 72 hours

From patent publication US20090076067A1, “PHARMACEUTICAL COMPOSITION COMPRISING AZARHODACYANINE COMPOUND AS ACTIVE INGREDIENT” (priority 2005, published 2009)
